Patent publication US8691864B2, “Agents useful for reducing amyloid precursor protein and treating dementia and methods of use thereof” (priority 2000, dated 2014)

Key:
[1] = system: secreted APP; test: ELISA for secreted APP in SHSY5Y cells; assay type: cell-based, human; settings: 16 hours
Protocol: (§1) An enzyme-linked immunosorbent assay was developed to detect secreted APP in SHSY5Y cells, a human neuroblastoma cell line. The purpose of the screen was to discover small molecules that inhibit APP protein synthesis in SHSY5Y cells. SHSY5Y cells were plated at 1×10^5 cells/well in […] of DMEM containing 0.5% heat inactivated FBS in 96 well tissue culture treated plates (Falcon no. 35 3072). 144 MES compounds were tested at final concentrations of […] in 0.1% DMSO. Compounds were added and the plates incubated for 16 hours at 37° C./5% CO2. Maxisorp plates (Nunc no. 437958) were coated overnight with […] capture antibody (Biosource 44-100) diluted in Ca^++ and Mg^++ free PBS. Biosource 44-100 is a mouse mAb that recognizes aa 1-100 of human APP. Plates were blocked for 30 minutes with 1 mg/mL BSA in Ca^++ and Mg^++ free PBS. Plates were washed 3× with wash buffer (Ca^++ and Mg^++ free PBS+0.01% Tween20). […] of supernatants and non-cultured medium controls were transferred from culture plates to ELISA plates. Culture plates were reserved for toxicity analysis. Supernatants were incubated for 4 hours at RT on a plate shaker. After supernatant incubation, plates were washed 3×. Primary antibody (Signet Clone 6E-10 biotin) was added at 0.3125 mg/mL and incubated overnight at 4° C. The recognition site of 6E-10 is aa 1-17 of Ab. For detection, a 1:3000 dilution of horseradish peroxidase conjugated streptavidin (Endogen no. N-100) was incubated for 30 minutes. Plates were washed 3×. Enzyme activity was assessed by incubation with […] TMB substrate solution (Moss no. TMB-US) for 20 minutes. The reaction was stopped by the addition of […] 0.18M sulfuric acid. Optical density was read at 450 nm on Wallac Victor2 plate reader. During the first incubation, toxicity was determined using MTS assay, Cell Titer96 AQ reagent (Promega no. G5430). The background values from the non-cultured medium control were subtracted from the sample values and secreted APP levels and toxicity were expressed as % vehicle control. Of the 144 MES compounds screened, 12 inhibited secreted APP as determined by ELISA. The results are depicted in FIGS. 13A-M.
(§2) Using the experimental procedure outlined above, APP secretion and toxicity studies were performed on several other non-carbamate compounds, and the results are shown in Tables 3 and 4. The compound structures are provided in Table 2 in the application, which are identified by their MES number.

[2] = system: SH-SY-5Y Cells; test: MTS toxicity assay in SHSY5Y cells; assay type: cell-based, human
Protocol: as §1, §2

Row | Structure (SMILES) | APP Secretion by SH-SY-5Y Cells ([1]; Dose 2 uM) [% vehicle control] | APP Secretion by SH-SY-5Y Cells ([1]; Dose 6 uM) [% vehicle control] | APP Secretion by SH-SY-5Y Cells ([1]; Dose 20 uM) [% vehicle control] | APP Toxicity SH-SY-5Y Cells (MTS assay) ([2]; Dose 2 uM) [% vehicle control] | APP Toxicity SH-SY-5Y Cells (MTS assay) ([2]; Dose 6 uM) [% vehicle control] | APP Toxicity SH-SY-5Y Cells (MTS assay) ([2]; Dose 20 uM) [% vehicle control] | APP Secretion by SH-SY-5Y Cells ([1]; Dose 2 uM, listed as 9231) [% vehicle control] | APP Secretion by SH-SY-5Y Cells ([1]; Dose 6 uM, listed as 9231) [% vehicle control] | APP Secretion by SH-SY-5Y Cells ([1]; Dose 20 uM, listed as 9231) [% vehicle control] | APP Toxicity SH-SY-5Y Cells (MTS assay) ([2]; Dose 2 uM, listed as 9231) [% vehicle control] | APP Toxicity SH-SY-5Y Cells (MTS assay) ([2]; Dose 6 uM, listed as 9231) [% vehicle control] | APP Toxicity SH-SY-5Y Cells (MTS assay) ([2]; Dose 20 uM, listed as 9231) [% vehicle control] | APP Secretion by SH-SY-5Y Cells ([1]; Dose 0.08 uM) [% vehicle control] | APP Secretion by SH-SY-5Y Cells ([1]; Dose 0.25 uM) [% vehicle control] | APP Secretion by SH-SY-5Y Cells ([1]; Dose 0.74 uM) [% vehicle control] | APP Toxicity SH-SY-5Y Cells (MTS assay) ([2]; Dose 0.08 uM) [% vehicle control] | APP Toxicity SH-SY-5Y Cells (MTS assay) ([2]; Dose 0.25 uM) [% vehicle control] | APP Toxicity SH-SY-5Y Cells (MTS assay) ([2]; Dose 0.74 uM) [% vehicle control]
1 | COc1ccc2c(c1)[C@@]1(C)CCN(C)C1N2C (stereo partly drawn) [MES 9229] | 111.6 | 111.4 | 125.1 | 99.97 | 96.07 | 91.47 | – | – | – | – | – | – | – | – | – | – | – | –
2 | CN1CC[C@]2(C)c3cc(O)ccc3N(C)C12 (stereo partly drawn) [MES 9230] | 101.25 | 88.8 | 4.4 | 100.8 | 86.13 | 13.83 | – | – | – | – | – | – | – | – | – | – | – | –
3 | COc1ccc2c(c1)[C@]1(C)CCN(Cc3ccccc3)C1N2C (stereo partly drawn) [MES 9231] | – | – | – | – | – | – | 104.9 | 133.5 | 154.2 | 95.7 | 90.73 | 85.87 | – | – | – | – | – | –
4 | COc1ccc2c(c1)[C@@]1(C)CC[N+](C)(C)C1N2Cc1ccccc1.[I-] (stereo partly drawn) [MES 9234] | 106.4 | 96.5 | 98.8 | 102.55 | 99.75 | 99.3 | – | – | – | – | – | – | – | – | – | – | – | –
5 | COc1ccc2c(c1)[C@@](C)(CC[N+](C)(C)C)C(O)N2Cc1ccccc1.[I-] (stereo partly drawn) [MES 9236] | 105.8 | 103.2 | 101.65 | 97.6 | 101 | 100.05 | – | – | – | – | – | – | – | – | – | – | – | –
6 | COc1ccc2c(c1)[C@@]1(C)CCN(Cc3ccccc3)C1N2Cc1ccccc1 (stereo partly drawn) [MES 9237] | 149.95 | 158.1 | 173.3 | 96.55 | 98.35 | 99.4 | – | – | – | – | – | – | – | – | – | – | – | –
7 | C[C@]12CCN(Cc3ccccc3)C1N(Cc1ccccc1)c1ccc(O)cc12 (stereo partly drawn) [MES 9238] | 48.57 | 39.23 | 23.57 | 41.8 | 40.47 | 31.63 | – | – | – | – | – | – | 117.6 | 107.7 | 109.7 | 101.8 | 103.8 | 106.4
